Literature values, collected in PubChem BioAssay AID1259409 (Chemical Carcinogenesis Research Information System (CCRIS), 2018).

System: rodent chemically induced tumor inhibition, incidence and multiplicity
Assay: CCRIS tumor inhibitor studies
Conditions: Dose [Inhibitor]: 0

| Compound | tumour outcome (control, treated, inhibition, significance) (Carcinogen: N-METHYL-N-NITROSOUREA (684-93-5), 0.2 MG/30 G BW ONCE EVERY 4 WK BEGINNING 1 WK POST CARCINOGEN DOSE (STUDY DURATION: 31 WK), Route [Inhibitor]: SUBCUTANEOUS, Species: MOUSE, Strain/Sex: ICR/FEMALE, Target Tissue: Type of Lesion: UTERUS: ENDOMETRIAL ADENOCARCINOMA, Dose [Carcinogen]: 1 MG/100 G BW IN 0.1 ML SALINE ONCE AT 10 WKS OF AGE, Promoter: 17 BETA-ESTRADIOL (50-28-2)) | tumour outcome (control, treated, inhibition, significance) (Carcinogen: N-METHYL-N-NITROSOUREA, 684-93-5, 100 MG/KG IN DIET FOR 28 D THEN REDUCED TO 50 MG/KG IN DIET FOR THE DURATION OF STUDY (STUDY DURATION: 187 D), Route [Inhibitor]: ORAL, Species: RAT, Strain/Sex: SPRAGUE-DAWLEY/FEMALE, Target Tissue: Type of Lesion: MAMMARY GLAND: TUMOR, Dose [Carcinogen]: 50 MG/KG BW ONCE, Promoter: NONE USED) | tumour outcome (control, treated, inhibition, significance) (Carcinogen: ETHYL CARBAMATE, 51-79-6, 0.25 MG/G IN 0.005 ML OF 0.9% SALINE ADMINISTERED 30 MIN PRIOR TO CARCINOGEN DOSE (STUDY DURATION: 26 WK), Route [Inhibitor]: INTRAPERITONEAL, Species: MOUSE, Strain/Sex: STRAIN-A/FEMALE, Target Tissue: Type of Lesion: LUNG: ADENOMA, Dose [Carcinogen]: 0.5 MG/G ONCE, Promoter: NONE USED) | tumour outcome (control, treated, inhibition, significance) (Carcinogen: ETHYL CARBAMATE, 51-79-6, 0.25 MG/G IN 0.005 ML OF 0.9% SALINE FIRST DOSE ADMINISTERED 30 MIN PRIOR TO CARCINOGEN DOSE FOLLOWED BY A SECOND DOS, Route [Inhibitor]: INTRAPERITONEAL, Species: MOUSE, Strain/Sex: STRAIN-A/FEMALE, Target Tissue: Type of Lesion: LUNG: ADENOMA, Dose [Carcinogen]: 0.25 MG/G ONCE, Promoter: NONE USED) | tumour outcome (control, treated, inhibition, significance) (Carcinogen: ETHYL CARBAMATE, 51-79-6, 0.25 MG/G IN 0.005 ML OF 0.9% SALINE FIRST DOSE ADMINISTERED 30 MIN PRIOR TO CARCINOGEN DOSE FOLLOWED BY A SECOND DOS, Route [Inhibitor]: INTRAPERITONEAL, Species: MOUSE, Strain/Sex: STRAIN-A/FEMALE, Target Tissue: Type of Lesion: LUNG: ADENOMA, Dose [Carcinogen]: 0.5 MG/G ONCE, Promoter: NONE USED) | tumour outcome (control, treated, inhibition, significance) (Carcinogen: ETHYL CARBAMATE, 51-79-6, 0.5 MG/G IN 0.01 ML OF 0.9% SALINE ADMINISTERED 30 MIN PRIOR TO CARCINOGEN DOSE (STUDY DURATION: 7 MO), Route [Inhibitor]: INTRAPERITONEAL, Species: MOUSE, Strain/Sex: B6C3F1/MALE, Target Tissue: Type of Lesion: LIVER: HEPATOMA, Dose [Carcinogen]: 0.5 MG/G ONCE, Promoter: NONE USED) | tumour outcome (control, treated, inhibition, significance) (Carcinogen: ETHYL CARBAMATE, 51-79-6, 0.5 MG/G IN 0.01 ML OF 0.9% SALINE ADMINISTERED 30 MIN PRIOR TO CARCINOGEN DOSE (STUDY DURATION: 8 MO), Route [Inhibitor]: INTRAPERITONEAL, Species: MOUSE, Strain/Sex: B6C3F1/MALE, Target Tissue: Type of Lesion: LIVER: HEPATOMA, Dose [Carcinogen]: 0.125 MG/G ONCE, Promoter: NONE USED) | tumour outcome (control, treated, inhibition, significance) (Carcinogen: ETHYL CARBAMATE, 51-79-6, 0.5 MG/G IN 0.01 ML OF 0.9% SALINE ADMINISTERED 30 MIN PRIOR TO CARCINOGEN DOSE (STUDY DURATION: 8 MO), Route [Inhibitor]: INTRAPERITONEAL, Species: MOUSE, Strain/Sex: B6C3F1/MALE, Target Tissue: Type of Lesion: LIVER: HEPATOMA, Dose [Carcinogen]: 0.25 MG/G ONCE, Promoter: NONE USED) | tumour outcome (control, treated, inhibition, significance) (Carcinogen: ETHYL CARBAMATE, 51-79-6, 0.5 MG/G IN 0.01 ML OF 0.9% SALINE ADMINISTERED 30 MIN PRIOR TO CARCINOGEN DOSE (STUDY DURATION: 12 MO), Route [Inhibitor]: INTRAPERITONEAL, Species: MOUSE, Strain/Sex: B6C3F1/FEMALE, Target Tissue: Type of Lesion: HARDERIAN GLAND: TUMOR, Dose [Carcinogen]: 0.5 MG/G ONCE, Promoter: NONE USED) | tumour outcome (control, treated, inhibition, significance) (Carcinogen: ETHYL CARBAMATE, 51-79-6, 0.5 MG/G IN 0.01 ML OF 0.9% SALINE ADMINISTERED 30 MIN PRIOR TO CARCINOGEN DOSE (STUDY DURATION: 12 MO), Route [Inhibitor]: INTRAPERITONEAL, Species: MOUSE, Strain/Sex: B6C3F1/FEMALE, Target Tissue: Type of Lesion: LIVER: HEPATOMA, Dose [Carcinogen]: 0.5 MG/G ONCE, Promoter: NONE USED) | tumour outcome (control, treated, inhibition, significance) (Carcinogen: ETHYL CARBAMATE, 51-79-6, 0.5 MG/G IN 0.01 ML OF 0.9% SALINE ADMINISTERED 30 MIN PRIOR TO CARCINOGEN DOSE (STUDY DURATION: 12 MO), Route [Inhibitor]: INTRAPERITONEAL, Species: MOUSE, Strain/Sex: B6C3F1/FEMALE, Target Tissue: Type of Lesion: LUNG: ADENOMA, Dose [Carcinogen]: 0.5 MG/G ONCE, Promoter: NONE USED) | tumour outcome (control, treated, inhibition, significance) (Carcinogen: VINYL CARBAMATE, 15805-73-9, 0.25 MG/G IN 0.005 ML OF 0.9% SALINE ADMINISTERED 30 MIN PRIOR TO CARCINOGEN DOSE (STUDY DURATION: 26 WK), Route [Inhibitor]: INTRAPERITONEAL, Species: MOUSE, Strain/Sex: STRAIN-A/FEMALE, Target Tissue: Type of Lesion: LUNG: ADENOMA, Dose [Carcinogen]: 0.025 MG/G ONCE, Promoter: NONE USED) | tumour outcome (control, treated, inhibition, significance) (Carcinogen: VINYL CARBAMATE, 15805-73-9, 0.5 MG/G IN 0.005 ML OF 0.9% SALINE ADMINISTERED 30 MIN PRIOR TO CARCINOGEN DOSE (STUDY DURATION: 26 WK), Route [Inhibitor]: INTRAPERITONEAL, Species: MOUSE, Strain/Sex: STRAIN-A/FEMALE, Target Tissue: Type of Lesion: LUNG: ADENOMA, Dose [Carcinogen]: 0.025 MG/G ONCE, Promoter: NONE USED) | tumour outcome (control, treated, inhibition, significance) (Carcinogen: VINYL CARBAMATE, 15805-73-9, 0.5 MG/G IN 0.01 ML OF 0.9% SALINE ADMINISTERED 30 MIN PRIOR TO CARCINOGEN DOSE (STUDY DURATION: 7 MO), Route [Inhibitor]: INTRAPERITONEAL, Species: MOUSE, Strain/Sex: B6C3F1/MALE, Target Tissue: Type of Lesion: LIVER: HEPATOMA, Dose [Carcinogen]: 0.025 MG/G ONCE, Promoter: NONE USED) | tumour outcome (control, treated, inhibition, significance) (Carcinogen: VINYL CARBAMATE, 15805-73-9, 0.5 MG/G IN 0.01 ML OF 0.9% SALINE ADMINISTERED 30 MIN PRIOR TO CARCINOGEN DOSE (STUDY DURATION: 8 MO), Route [Inhibitor]: INTRAPERITONEAL, Species: MOUSE, Strain/Sex: B6C3F1/MALE, Target Tissue: Type of Lesion: LIVER: HEPATOMA, Dose [Carcinogen]: 0.003 MG/G ONCE, Promoter: NONE USED) | tumour outcome (control, treated, inhibition, significance) (Carcinogen: VINYL CARBAMATE, 15805-73-9, 0.5 MG/G IN 0.01 ML OF 0.9% SALINE ADMINISTERED 30 MIN PRIOR TO CARCINOGEN DOSE (STUDY DURATION: 8 MO), Route [Inhibitor]: INTRAPERITONEAL, Species: MOUSE, Strain/Sex: B6C3F1/MALE, Target Tissue: Type of Lesion: LIVER: HEPATOMA, Dose [Carcinogen]: 0.008 MG/G ONCE, Promoter: NONE USED) | tumour outcome (control, treated, inhibition, significance) (Carcinogen: VINYL CARBAMATE, 15805-73-9, 0.5 MG/G IN 0.01 ML OF 0.9% SALINE ADMINISTERED 30 MIN PRIOR TO CARCINOGEN DOSE (STUDY DURATION: 12 MO), Route [Inhibitor]: INTRAPERITONEAL, Species: MOUSE, Strain/Sex: B6C3F1/FEMALE, Target Tissue: Type of Lesion: HARDERIAN GLAND: TUMOR, Dose [Carcinogen]: 0.025 MG/G ONCE, Promoter: NONE USED) | tumour outcome (control, treated, inhibition, significance) (Carcinogen: VINYL CARBAMATE, 15805-73-9, 0.5 MG/G IN 0.01 ML OF 0.9% SALINE ADMINISTERED 30 MIN PRIOR TO CARCINOGEN DOSE (STUDY DURATION: 12 MO), Route [Inhibitor]: INTRAPERITONEAL, Species: MOUSE, Strain/Sex: B6C3F1/FEMALE, Target Tissue: Type of Lesion: LIVER: HEPATOMA, Dose [Carcinogen]: 0.025 MG/G ONCE, Promoter: NONE USED) | tumour outcome (control, treated, inhibition, significance) (Carcinogen: VINYL CARBAMATE, 15805-73-9, 0.5 MG/G IN 0.01 ML OF 0.9% SALINE ADMINISTERED 30 MIN PRIOR TO CARCINOGEN DOSE (STUDY DURATION: 12 MO), Route [Inhibitor]: INTRAPERITONEAL, Species: MOUSE, Strain/Sex: B6C3F1/FEMALE, Target Tissue: Type of Lesion: LUNG: ADENOMA, Dose [Carcinogen]: 0.025 MG/G ONCE, Promoter: NONE USED) |
| --- | --- | --- | --- | --- | --- | --- | --- | --- | --- | --- | --- | --- | --- | --- | --- | --- | --- | --- | --- |
| CN(C)CCOc1ccc(/C(=C(/CCCl)c2ccccc2)c2ccccc2)cc1 | 8/24 (33%), 1/19 (5%), 85%, p< 0.01 | 100%, 46%, 54%, p<0.05 | – | – | – | – | – | – | – | – | – | – | – | – | – | – | – | – | – |
| NC(=S)S | – | – | 100%, 100%, 0%, not calculated | 100%, 100%, 0%, not calculated | 100%, 100%, 0%, not calculated | 26/26 (100%), 31/31 (100%), 0%, not calculated | 24/24 (100%), 24/25 (96%), 4%, not calculated | 17/17 (100%), 28/29 (97%), 3%, not calculated | 40%, 15%, 62%, not calculated | 68%, 19%, 72%, not calculated | 48%, 12%, 75%, not calculated | 100%, 100%, 0%, not calculated | 100%, 100%, 0%, not calculated | 24/24 (100%), 29/29 (100%), 0%, not calculated | 29/29 (100%), 27/27 (100%), 0%, not calculated | 23/23 (100%), 27/27 (100%), 0%, not calculated | 68%, 22%, 68%, not calculated | 96%, 30%, 69%, not calculated | 54%, 9%, 83%, not calculated |
